Paper PMC9025560, “A Comparison of Evans Blue and 4-(p-Iodophenyl)butyryl Albumin Binding Moieties on an Integrin αvβ6 Binding Peptide” (Pharmaceutics, 2022)
Like-named read-outs stand apart in the source and are kept apart here.

Tests used:
BxPC-3 xenograft tumors = experiment: Biodistribution in mice bearing BxPC-3 xenograft tumors; assay type: in vivo; details: for Kidneys uptake: i.v.
Protocol: All animal procedures conformed to the Animal Welfare Act and were approved by the University of California, Davis Institutional Animal Care and Use Committee. Female athymic nu/nu-nude mice (6–8 weeks old) were purchased from Charles River Laboratories (Wilmington, MA, USA) and provided food and water on an ad libitum basis. BxPC-3 xenografts were implanted according to previous methods. Briefly, BxPC-3 cells were evaluated by flow cytometry to confirm integrin αvβ6 expression levels, injected subcutaneously into the left flank [5 million in 100 μL of a 1:1 mixture of serum-free RPMI and GFR Matrigel (Corning, New York, NY, USA)], and allowed to grow for approximately 3 weeks until tumors reached a diameter of 0.5–1 cm.
For biodistribution studies the [^64Cu]1–4 (3.7–5.55 MBq) in PBS (100 μL, pH 7.2) was injected intravenously (i.v.) via catheter into the tail vein. Following a conscious uptake period, the mice were anesthetized (5% isoflurane), euthanized, and dissected ([^64Cu]1 and [^64Cu]2, n = 3/radiolabeled peptide/time point; 4, 24, and 48 h p.i.; the 72 h time point was obtained from the imaging animals after the 72 h PET/CT scans; compounds [^64Cu]3 and [^64Cu]4, n = 2/radiolabeled compound at 4 h p.i.). Tissues were rapidly collected, weighed, and radioactivity measured with a γ-counter. Decay-corrected radioactivity concentrations are expressed as the percentage of injected dose per gram of tissue (% ID/g). Data are reported as mean ± standard deviation (SD) (Figure S20, S21 and S25).

human serum protein = experiment: Human serum protein binding by ultrafiltration; assay type: in vitro ADME
Protocol: Serum protein binding of [^64Cu]1 and [^64Cu]2 was assessed following the previously reported method. Peptides [^64Cu]1 and [^64Cu]2 were evaluated by ultrafiltration using Centrifree Ultrafiltration devices (EMD) according to the manufacturer’s recommendations. Experiments were carried out in triplicate. The Centrifree Ultrafiltration devices were pretreated with PBS containing Tween 20 (5% v/v), followed by triplicate rinses with PBS. An aliquot of each peptide [^64Cu]1 or [^64Cu]2 in PBS (≤25 μL, 20–60 KBq) was thoroughly mixed with 0.5 mL of serum at 37 °C in a microfuge tube. The mixture was incubated at 37 °C for 5 min, and an aliquot (50 μL) was transferred to a tube for γ-counting. The remaining sample was transferred to a Centrifree Ultrafiltration device and centrifuged for 40 min at 1500 (RCF) at ambient temperature (20–24 °C). An aliquot (50 μL) of the filtrate was transferred to a tube for γ-counting. For each radiolabeled peptide, a blank was run using 0.5 mL PBS/Tween 20 (5% v/v) instead of serum (n = 3) to determine non-specific binding. Following γ-counting, the protein-bound radioactivity was calculated by subtracting the counts measured in the filtrate aliquot (i.e., not protein-bound) from the counts in the corresponding serum aliquot. The data are expressed as mean ± standard deviation of fraction of radioactivity bound to protein after subtraction of non-specific binding determined in the blank.

[1] = Stability in human serum at 37 °C; assay type: in vitro ADME; details: read-out: Stability in human serum, % intact
Protocol: For serum stability, mouse serum or human serum (0.5 mL, both purchased from Sigma-Aldrich) was combined with an aliquot of each of the peptides [^64Cu]1 and [^64Cu]2 (≤25 μL, 14.8–22.2 MBq) and incubated at 37 °C. At each time point (1, 4, and 24 h) an aliquot (50–200 μL) was taken, proteins precipitated with ethanol, and removed by pelleting at 1500 (RCF) for 4 min. The ethanol solution was diluted with water (1 mL) and analyzed by RP-HPLC as previously described.

[2] = Blocking biodistribution with pre-administered metal free peptide; assay type: in vivo, mice; details: female, athymic nu/nu-nude, mouse, intravenous, total radioactivity, 4 h p.i., metal free peptide 10 min before, n = 1
Protocol: For blocking studies, the metal free peptides 1 or 2 (~220 nmol, 1.3 mg in 100 μL PBS), respectively, were injected i.v. (n = 1/peptide) as described above 10 min prior to the injection of matching radiolabeled [^64Cu]1 or [^64Cu]2 (3.7–5.55 MBq, 100 μL PBS). After a conscious 4 h uptake period, the animals were anesthetized, sacrificed, tissues rapidly collected, and analyzed as described above. Decay-corrected radioactivity concentrations are expressed as a percentage of injected dose per gram of tissue (% ID/g) (Figure S23).

Cc1cc(-c2ccc(NC(=O)CCC(=O)NCCCC[C@H](NC(=O)CN3CCN(CC(=O)O)CCN(CC(=O)O)CCN(CC(=O)O)CC3)C(=O)NCCOCCOCCOCCOCCOCCOCCOCCOCCOCCOCCOCCOCCOCCOCCOCCOCCOCCOCCOCCOCCOCCOCCOCCOCCOCCOCCOCCOCCC(=O)N[C@@H](CC(N)=O)C(=O)N[C@@H](C)C(=O)N[C@H](C(=O)N3CCC[C@H]3C(=O)N[C@@H](CC(N)=O)C(=O)N[C@@H](CC(C)C)C(=O)N[C@@H](CCCNC(=N)N)C(=O)NCC(=O)N[C@@H](CC(=O)O)C(=O)N[C@@H](CC(C)C)C(=O)N[C@@H](CCC(N)=O)C(=O)N[C@H](C(=O)N[C@@H](CC(C)C)C(=O)N[C@@H](C)C(=O)N[C@@H](CCC(N)=O)C(=O)N[C@@H](CCCNC(=N)N)C(=O)N[C@H](C(=O)N[C@@H](C)C(=O)N[C@@H](CCCNC(=N)N)C(=O)N[C@H](C(=O)NCCOCCOCCOCCOCCOCCOCCOCCOCCOCCOCCOCCOCCOCCOCCOCCOCCOCCOCCOCCOCCOCCOCCOCCOCCOCCOCCOCCOCCC(N)=O)[C@@H](C)O)C(C)C)C(C)C)C(C)C)c(C)c2)ccc1N=Nc1ccc2c(S(=O)(=O)O)cc(S(=O)(=O)O)c(N)c2c1O [[^64Cu]1, [^64Cu]Cu DOTA-EB-αvβ6-BP, metal not drawn]
Tumor-Blood ratio (BxPC-3 xenograft tumors; 4 h p.i.): > 4/1
Tumor-Kidney ratio (BxPC-3 xenograft tumors; 4 h p.i.): 0.07 ± 0.003
Tumor-Lg Intestines ratio (BxPC-3 xenograft tumors; 4 h p.i.): 1.28 ± 0.12
Tumor-Liver ratio (BxPC-3 xenograft tumors; 4 h p.i.): 3.2–4.9
Tumor-Muscle ratio (BxPC-3 xenograft tumors; 4 h p.i.): > 8/1
Tumor-Sm Intestines ratio (BxPC-3 xenograft tumors; 4 h p.i.): 1.12 ± 0.05
Tumor-Stomach ratio (BxPC-3 xenograft tumors; 4 h p.i.): 0.83 ± 0.03
Kidneys uptake (BxPC-3 xenograft tumors; 4 h p.i.): 75.5 ± 7.3 % ID/g
Tumor-Blood ratio (BxPC-3 xenograft tumors; 4 h p.i., listed as [64Cu]1): 4.30 ± 1.47
Tumor-Liver ratio (BxPC-3 xenograft tumors; 4 h p.i., listed as [64Cu]1): 3.24 ± 0.14
Tumor-Muscle ratio (BxPC-3 xenograft tumors; 4 h p.i., listed as [64Cu]1): 7.95 ± 0.55
Tumor-Blood ratio (BxPC-3 xenograft tumors; 24 h p.i.): 15.41 ±3.77
Tumor-Kidney ratio (BxPC-3 xenograft tumors; 24 h p.i.): 0.13 ± 0.06
Tumor-Lg Intestines ratio (BxPC-3 xenograft tumors; 24 h p.i.): 1.41 ±0.43
Tumor-Liver ratio (BxPC-3 xenograft tumors; 24 h p.i.): 2.39 ± 0.59
Tumor-Muscle ratio (BxPC-3 xenograft tumors; 24 h p.i.): 9.47 ±4.84
Tumor-Sm Intestines ratio (BxPC-3 xenograft tumors; 24 h p.i.): 1.75 ±0.52
Tumor-Stomach ratio (BxPC-3 xenograft tumors; 24 h p.i.): 1.19 ±0.02
Tumor-Blood ratio (BxPC-3 xenograft tumors; 48 h p.i.): 12.03± 1.44
Tumor-Kidney ratio (BxPC-3 xenograft tumors; 48 h p.i.): 0.15 ± 0.02
Tumor-Lg Intestines ratio (BxPC-3 xenograft tumors; 48 h p.i.): 1.51 ± 0.58
Tumor-Liver ratio (BxPC-3 xenograft tumors; 48 h p.i.): 1.51 ± 0.29
Tumor-Muscle ratio (BxPC-3 xenograft tumors; 48 h p.i.): 8.39 ± 3.59
Tumor-Sm Intestines ratio (BxPC-3 xenograft tumors; 48 h p.i.): 2.18 ± 0.91
Tumor-Stomach ratio (BxPC-3 xenograft tumors; 48 h p.i.): 1.41 ± 0.79
Fold higher liver uptake than [64Cu]2 (BxPC-3 xenograft tumors; 72 h): > 1.8 fold
Tumor-Blood ratio (BxPC-3 xenograft tumors; 72 h p.i.): 10.07 ± 3.24
Tumor-Kidney ratio (BxPC-3 xenograft tumors; 72 h p.i.): 0.19 ± 0.08
Tumor-Lg Intestines ratio (BxPC-3 xenograft tumors; 72 h p.i.): 1.75 ±0.48
Tumor-Liver ratio (BxPC-3 xenograft tumors; 72 h p.i.): 1.47 ± 0.47
Tumor-Muscle ratio (BxPC-3 xenograft tumors; 72 h p.i.): 8.11 ±3.02
Tumor-Sm Intestines ratio (BxPC-3 xenograft tumors; 72 h p.i.): 2.43 ±0.45
Tumor-Stomach ratio (BxPC-3 xenograft tumors; 72 h p.i.): 1.65 ±0.32
Kidneys uptake (BxPC-3 xenograft tumors; 72 h p.i.): 20.0 ± 6.9 % ID/g
Fold increase in tumor accumulation over non-ABM [64Cu]Cu DOTA-αvβ6-BP (BxPC-3 xenograft tumors; BxPC-3 tumor model): > 3 fold
Fold higher kidney uptake than [64Cu]2 (BxPC-3 xenograft tumors; for at least 48 h): > 1.7 fold
Binding to human serum protein (human serum protein; 37 °C, ultrafiltration): 53.4 ± 0.9%
Serum albumin binding (human serum protein; abstract, serum species not stated): 53–63%
remaining at 1 h ([1]; 1 h): 99%
remaining at 4 h ([1]; 4 h): 89%
remaining at 24 h ([1]; 24 h): 76%
tissue uptake at 4 h ([2]; BxPC-3 tumor, read-out: BxPC-3 Tumor uptake, blocked): 2.91 %ID/g
tissue uptake at 4 h ([2]; blood, read-out: Blood uptake, blocked): 2.56 %ID/g
tissue uptake at 4 h ([2]; bone, read-out: Bone uptake, blocked): 0.43 %ID/g
tissue uptake at 4 h ([2]; brain, read-out: Brain uptake, blocked): 0.07 %ID/g
tissue uptake at 4 h ([2]; gall bladder, read-out: Gall Bladder uptake, blocked): 1.96 %ID/g
tissue uptake at 4 h ([2]; heart, read-out: Heart uptake, blocked): 0.96 %ID/g
tissue uptake at 4 h ([2]; kidneys, read-out: Kidneys uptake, blocked): 71.6 %ID/g
tissue uptake at 4 h ([2]; large intestines, read-out: Lg. Intestines uptake, blocked): 0.9 %ID/g
tissue uptake at 4 h ([2]; liver, read-out: Liver uptake, blocked): 1.92 %ID/g
tissue uptake at 4 h ([2]; lung, read-out: Lung uptake, blocked): 1.65 %ID/g
tissue uptake at 4 h ([2]; muscle, read-out: Muscle uptake, blocked): 0.41 %ID/g
tissue uptake at 4 h ([2]; pancreas, read-out: Pancreas uptake, blocked): 0.39 %ID/g
tissue uptake at 4 h ([2]; skin, read-out: Skin uptake, blocked): 1.12 %ID/g
tissue uptake at 4 h ([2]; small intestines, read-out: Sm. Intestines uptake, blocked): 0.91 %ID/g
tissue uptake at 4 h ([2]; spleen, read-out: Spleen uptake, blocked): 0.85 %ID/g
tissue uptake at 4 h ([2]; stomach, read-out: Stomach uptake, blocked): 0.72 %ID/g
